Measured values as given in US12257247B2 (Monte Rosa Therapeutics AG, priority 2023, dated 2025).
Like-named read-outs stand apart in the source and are kept apart here.

Target: T1, VAV1 (Homo sapiens, UniProt P15498+Q96SW2)
T1 construct: A heterozygous VAV1 C-terminal HiBiT knock-in pool was generated at Monte Rosa Therapeutics from a clonal Jurkat cell; endogenous in cells; host or cells: Jurkat clone stably expressing LgBiT, homozygous GSPT1-G575N; heterozygous VAV1-HiBiT knock-in pool
Experiment: VAV1 degradation activity, VAV1-HiBiT knock-in Jurkat luminescence assay (Example A, Table 1)
Type: cell-based
Settings: VAV1-HiBiT knock-in Jurkat cells; for Dmax: Jurkat
Outline: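 Jurkat cells carrying VAV1-HiBiT knock-in, plated in RPMI/10% FBS with Endurazine live-cell substrate and pre-incubated ~16 h at 37° C. Compound dosed from 10 μM stock; luminescence read 6 and 24 h later. Response normalised to plate negative/positive controls, EC50 from 3-parameter logistic fit (hillslope 1).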

[1] = luminescence read at 6 and 24 hours, read-out: VAV1 Dmax %
[2] = luminescence read at 6 and 24 hours, read-out: VAV1 Dmax %, class
[3] = luminescence read at 6 and 24 hours, read-out: VAV1 DC50
[4] = luminescence read at 6 and 24 hours, read-out: VAV1 DC50 (nM), class

| Dmax [1] [%] | Dmax [2] [%] | DC50 [3] [nM] | DC50 [4] [nM] | Dmax (luminescence read at 6 and 24 hours after compound addition, read-out: VAV1 Dmax %) [%] | Dmax (luminescence read at 6 and 24 hours after compound addition, read-out: VAV1 Dmax %, class) [%] | DC50 (luminescence read at 6 and 24 hours after compound addition, read-out: VAV1 DC50) [nM] | DC50 (luminescence read at 6 and 24 hours after compound addition, read-out: VAV1 DC50 (nM), class) [nM] | Compound |
| --- | --- | --- | --- | --- | --- | --- | --- | --- |
| 90 | > 90 | 28.1 | ≤ 100 |  |  |  |  | CN1CC(=O)N(Cc2ccc(-c3cccc(C4CCC(=O)NC4=O)c3Cl)cc2)CC12COC2 (stereo not drawn) [Compound 259] |
| 96.2 | > 90 | 24.8 | ≤ 100 |  |  |  |  | O=C1CCC(c2cccc(-c3ccc(N4C(=O)Cc5ccccc54)cc3)c2Cl)C(=O)N1 (stereo not drawn) [Compound 468, 3-(2-chloro-4′-(2-oxoindolin-1-yl)-[1,1′-biphenyl]-3-yl)piperidine-2,6-dione] |
| 92.7 | > 90 | 35.8 | ≤ 100 |  |  |  |  | O=C1CCC(c2cccc(-c3ccc(-n4cc(C(F)(F)F)ccc4=O)cc3)c2Cl)C(=O)N1 (stereo not drawn) [Compound 237, 3-(2-chloro-4′-(2-oxo-5-(trifluoromethyl)pyridin-1(2H)-yl)-[1,1′-biphenyl]-3-yl)piperidine-2,6-dione] |
|  |  |  |  | 78.4 | 60 to 90 | 220 | 100 to 1000 | O=C1CCC(c2cccc(-c3ccc4cn[nH]c4c3)c2Cl)C(=O)N1 (stereo not drawn) [Compound 484, 3-(2-chloro-3-(1H-indazol-6-yl)phenyl)piperidine-2,6-dione] |
| 84.2 | 60 to 90 | 48 | ≤ 100 |  |  |  |  | Cn1ccc(COc2ccc(-c3cccc(C4CCC(=O)NC4=O)c3F)cc2)n1 (stereo not drawn) [Compound 150, 3-(2-fluoro-4′-((1-methyl-1H-pyrazol-3-yl)methoxy)-[1,1′-biphenyl]-3-yl)piperidine-2,6-dione] |
| 93.7 | > 90 | 14.4 | ≤ 100 |  |  |  |  | Cn1cccc(-c2ccc(-c3cccc(C4CCC(=O)NC4=O)c3Cl)cc2)c1=O (stereo not drawn) [Compound 225, 3-(2-chloro-4′-(1-methyl-2-oxo-1,2-dihydropyridin-3-yl)-[1,1′-biphenyl]-3-yl)piperidine-2,6-dione] |
| 95.9 | > 90 | 5.33 | ≤ 100 |  |  |  |  | O=C1CCC(c2cccc(-c3ccc(CN4C(=O)CC45CCOCC5)cc3)c2Cl)C(=O)N1 (stereo not drawn) [Compound 278] |
| 76.3 | 60 to 90 | 383 | 100 to 1000 |  |  |  |  | O=C1CCC(c2cccc(-c3ccc(N4C(=O)CC45CCC5)cc3)c2Cl)C(=O)N1 (stereo not drawn) [Compound 405, 3-(2-chloro-4′-(2-oxo-1-azaspiro[3.3]-heptan-1-yl)-[1,1′-biphenyl]-3-yl)piperidine-2,6-dione] |
| 8.11 | < 60 | ≥ 10000 | > 1000 |  |  |  |  | Cc1cc(OCc2ccn(C)n2)ccc1-c1ccc(Cl)c(C2CCC(=O)NC2=O)c1 (stereo not drawn) [Compound 152] |
| 40 | < 60 | 5770 | > 1000 |  |  |  |  | O=C1CCC(c2cccc(-c3ccc(C4(N5CCCCC5=O)CC4)cc3)c2Cl)C(=O)N1 (stereo not drawn) [Compound 337, 3-[2-chloro-3-[4-[1-(2-oxo-1-piperidyl)cyclopropyl]phenyl]phenyl]piperidine-2,6-dione] |
| 84.6 | 60 to 90 | 43 | ≤ 100 |  |  |  |  | C[C@@H]1COC(=O)N1c1ccc(-c2cccc(C3CCC(=O)NC3=O)c2Cl)cc1 (stereo partly drawn) [Compound 217, 3-(2-chloro-4′-((R)-4-methyl-2-oxooxazolidin-3-yl)-[1,1′-biphenyl]-3-yl)piperidine-2,6-dione] |

The next lines start with the molecule.

| Compound | Dmax [1] [%] | Dmax [2] [%] | DC50 [3] [nM] | DC50 [4] [nM] | Dmax (luminescence read at 6 and 24 hours after compound addition, read-out: VAV1 Dmax %) [%] | Dmax (luminescence read at 6 and 24 hours after compound addition, read-out: VAV1 Dmax %, class) [%] | DC50 (luminescence read at 6 and 24 hours after compound addition, read-out: VAV1 DC50) [nM] | DC50 (luminescence read at 6 and 24 hours after compound addition, read-out: VAV1 DC50 (nM), class) [nM] |
| --- | --- | --- | --- | --- | --- | --- | --- | --- |
| COc1cc(OC(F)F)ccc1-c1cccc(C2CCC(=O)NC2=O)c1Cl (stereo not drawn) [Compound 137] | 63.8 | 60 to 90 | 7440 | > 1000 |  |  |  |  |
| Cc1cc(-c2cccc(C3CCC(=O)NC3=O)c2Cl)ccc1OCCN1CCOCC1 (stereo not drawn) [Compound 155, 3-(2-chloro-3′-methyl-4′-(2-morpholinoethoxy)-[1,1′-biphenyl]-3-yl)piperidine-2,6-dione] | 92.7 | > 90 | 14.9 | ≤ 100 |  |  |  |  |
| O=C1CCC(c2cccc(-c3ccc(N4Cc5cccnc5C4=O)cc3)c2Cl)C(=O)N1 (stereo not drawn) [Compound 465, 3-(2-chloro-4′-(7-oxo-5,7-dihydro-6H-pyrrolo[3,4-b]pyridin-6-yl)-[1,1′-biphenyl]-3-yl)piperidine-2,6-dione] | 39.9 | < 60 | ≥ 10000 | > 1000 |  |  |  |  |
| COc1ccc(-c2cccc(C3CCC(=O)NC3=O)c2Cl)cc1C#N (stereo not drawn) [Compound 139] | 25.2 | < 60 | ≥ 10000 | > 1000 |  |  |  |  |
| COc1ccc(-c2ccc(F)c(C3CCC(=O)NC3=O)c2F)cc1C (stereo not drawn) [Compound 148] | 21.4 | < 60 | ≥ 10000 | > 1000 |  |  |  |  |
| O=C1CCC(c2cccc(-c3ccc(N4Cc5nccn5CC4=O)cc3)c2Cl)C(=O)N1 (stereo not drawn) [Compound 328] | 90.8 | > 90 | 15 | ≤ 100 |  |  |  |  |
| O=C1CCC(c2cccc(-c3ccc(CN4CC5CCCN5CC4=O)cc3)c2Cl)C(=O)N1 (stereo not drawn) [Compound 260] | 83.9 | 60 to 90 | 193 | 100 to 1000 |  |  |  |  |
| CC(C)(c1ccc(-c2cccc(C3CCC(=O)NC3=O)c2Cl)cc1)N1CCCCC1=O (stereo not drawn) [Compound 197, 3-(2-chloro-4′-(2-(2-oxopiperidin-1-yl)propan-2-yl)-[1,1′-biphenyl]-3-yl)piperidine-2,6-dione] | 88.8 | 60 to 90 | 33 | ≤ 100 |  |  |  |  |
| O=C1CCC(c2cccc(-c3ccc(N4C(=O)CCCC4C(F)(F)F)cc3)c2Cl)C(=O)N1 (stereo not drawn) [Compound 244, 3-(2-chloro-4′-(2-oxo-6-(trifluoromethyl)piperidin-1-yl)-[1,1′-biphenyl]-3-yl)piperidine-2,6-dione] | 96.5 | > 90 | 8.36 | ≤ 100 |  |  |  |  |
| O=C1CCC(c2cccc(-c3ccc(C(=O)Nc4ccno4)cc3)c2Cl)C(=O)N1 (stereo not drawn) [Compound 224, 2′-chloro-3′-(2,6-dioxopiperidin-3-yl)-N-(isoxazol-5-yl)-[1,1′-biphenyl]-4-carboxamide] | 51.5 | < 60 | 7800 | > 1000 |  |  |  |  |
| O=C1CCC(c2cccc(-c3ccc(Oc4ccccn4)cc3)c2Cl)C(=O)N1 (stereo not drawn) [Compound 354, 3-(2-chloro-4′-(pyridin-2-yloxy)-[1,1′-biphenyl]-3-yl)piperidine-2,6-dione] | 97.4 | > 90 | 13.3 | ≤ 100 |  |  |  |  |
| CC1CCN(c2ccc(-c3cccc(C4CCC(=O)NC4=O)c3Cl)cc2)C1=O (stereo not drawn) [Compound 304] | 72 | 60 to 90 | 274 | 100 to 1000 |  |  |  |  |
| O=C1CCC(c2cccc(-c3ccc(N4CCOCC4=O)cc3)c2Cl)C(=O)N1 (stereo not drawn) [Compound 336] | 93.5 | > 90 | 17.4 | ≤ 100 |  |  |  |  |
| CN1CC(=O)N(Cc2ccc(-c3cccc(C4CCC(=O)NC4=O)c3Cl)cc2)c2cccnc21 (stereo not drawn) [Compound 255] | 89.5 | 60 to 90 | 11 | ≤ 100 |  |  |  |  |
| O=C1CCC(c2cccc(-c3ccc(N4CCCCC4C(F)F)cc3)c2Cl)C(=O)N1 (stereo not drawn) [Compound 469, 3-(2-chloro-4′-(2-(difluoromethyl)piperidin-1-yl)-[1,1′-biphenyl]-3-yl)piperidine-2,6-dione] | 79.4 | 60 to 90 | 266 | 100 to 1000 |  |  |  |  |
| O=C1CCC(c2cccc(-c3ccc(CN4CCOC4=O)cc3)c2Cl)C(=O)N1 (stereo not drawn) [Compound 219] | 81.2 | 60 to 90 | 105 | 100 to 1000 |  |  |  |  |
| CN1CC(=O)N(c2ccc(-c3cccc(C4CCC(=O)NC4=O)c3Cl)cc2)c2cnccc21 (stereo not drawn) [Compound 334] | 93.5 | > 90 | 11.1 | ≤ 100 |  |  |  |  |
| O=C1CCC(c2cccc(-c3ccc(Cn4ccnc4)cc3)c2Cl)C(=O)N1 (stereo not drawn) [Compound 140, 3-(4′-((1H-imidazol-1-yl)methyl)-2-chloro-[1,1′-biphenyl]-3-yl)piperidine-2,6-dione] | 83.8 | 60 to 90 | 52.2 | ≤ 100 |  |  |  |  |
| O=C1CCC(c2cccc(-c3ccc(CN4Cc5ncccc5C4=O)cc3)c2Cl)C(=O)N1 (stereo not drawn) [Compound 298] | 95.4 | > 90 | 11.7 | ≤ 100 |  |  |  |  |
| CC1CCCC(=O)N1c1ccc(-c2cccc(C3CCC(=O)NC3=O)c2Cl)cc1 (stereo not drawn) [Compound 200, 3-(2-chloro-4′-(2-methyl-6-oxopiperidin-1-yl)-[1,1′-biphenyl]-3-yl)piperidine-2,6-dione] | 97 | > 90 | 5.14 | ≤ 100 |  |  |  |  |
| O=C1CCC(c2cccc(-c3ccc(CC4COC4)cc3)c2Cl)C(=O)N1 (stereo not drawn) [Compound 233, 3-(2-chloro-4′-(oxetan-3-ylmethyl)-[1,1′-biphenyl]-3-yl)piperidine-2,6-dione] | 92 | > 90 | 16.1 | ≤ 100 |  |  |  |  |
| C[C@H]1COC(=O)N1c1ccc(-c2cccc(C3CCC(=O)NC3=O)c2Cl)cc1 (stereo partly drawn) [Compound 216, 3-(2-chloro-4′-((S)-4-methyl-2-oxooxazolidin-3-yl)-[1,1′-biphenyl]-3-yl)piperidine-2,6-dione] | 86.6 | 60 to 90 | 49 | ≤ 100 |  |  |  |  |
